Data from EP4635500A1, “THERAPEUTIC AGENT FOR BACTERIAL INFECTION” (Sumitomo Pharma Co., Ltd., priority 2022, dated 2024).
Converted amounts (≈) assume the structure as drawn. Like-named read-outs stand apart in the source and are kept apart here.

Tested on: Enterobacterales
Test: MIC, broth microdilution, CDC/FDA Antibiotic Resistance Isolate Bank (Example 7, Tables 8, 11, 12)
Assay type: cell-based
Settings: for MIC: read-out: MIC

O=C(O)c1cn(C2CC2)c2cc(N3CCNCC3)c(F)cc2c1=O [Ciprofloxacin, ciprofloxacin]
MIC80 (154 strains of Enterobacterales, read-out: MIC80): > 64 mg/L
MIC90 (154 strains of Enterobacterales, read-out: MIC90): > 64 mg/L
MIC (Citrobacter freundii, KUB No. 5654, AR Bank # 157): > 64 mg/L
MIC (Escherichia coli, Escherichia coli KUB No. 5783, AR Bank #437): > 64 mg/L
MIC (Escherichia coli, Escherichia coli KUB No. 5794, AR Bank #450): 0.06 mg/L (≈ 0.181 µM)
MIC (Escherichia coli, Escherichia coli KUB No. 5796, AR Bank #452): > 64 mg/L
MIC (Escherichia coli, KUB No. 5552, AR Bank# 55): > 64 mg/L
MIC (Escherichia coli, KUB No. 5558, AR Bank # 61): ≤ 0.03 mg/L
MIC (Escherichia coli, KUB No. 5564, AR Bank # 67): > 64 mg/L
MIC (Escherichia coli, KUB No. 5566, AR Bank # 69): 0.06 mg/L (≈ 0.181 µM)
MIC (Escherichia coli, KUB No. 5574, AR Bank # 77): ≤ 0.03 mg/L
MIC (Escherichia coli, KUB No. 5582, AR Bank # 85): > 64 mg/L
MIC (Escherichia coli, KUB No. 5586, AR Bank # 89): ≤ 0.03 mg/L
MIC (Escherichia coli, KUB No. 5616, AR Bank # 119): > 64 mg/L
MIC (Escherichia coli, KUB No. 5634, AR Bank # 137): > 64 mg/L
MIC (Escherichia coli, KUB No. 5764, AR Bank # 368): ≤ 0.03 mg/L
MIC (Escherichia coli, KUB No. 5765, AR Bank # 369): 0.06 mg/L (≈ 0.181 µM)
MIC (Escherichia coli, KUB No. 5766, AR Bank # 370): > 64 mg/L
MIC (Escherichia coli, KUB No. 5768, AR Bank # 372): > 64 mg/L
MIC (Escherichia coli, KUB No. 5770, AR Bank # 374): > 64 mg/L
MIC (Escherichia, KUB No. 57, AR Bank # 436 (row cut off)): > 64 mg/L
MIC (Klebsiella aerogenes, Enterobacter aerogenes, KUB No. 5559, AR Bank # 62): 2 mg/L (≈ 6.04 µM)
MIC (Klebsiella aerogenes, Enterobacter aerogenes, KUB No. 5571, AR Bank # 74): 0.06 mg/L (≈ 0.181 µM)
MIC (Klebsiella aerogenes, Enterobacter aerogenes, KUB No. 5658, AR Bank # 161): 0.06 mg/L (≈ 0.181 µM)
MIC (Klebsiella aerogenes, Enterobacter aerogenes, KUB No. 5777, AR Bank # 431): 1 mg/L (≈ 3.02 µM)
MIC (Klebsiella oxytoca, KUB No. 5644, AR Bank # 147): ≤ 0.03 mg/L
MIC (Klebsiella oxytoca, KUB No. 5771, AR Bank # 375): ≤ 0.03 mg/L
MIC (Klebsiella ozaenae, KUB No. 5548, AR Bank# 51): > 64 mg/L
MIC (Klebsiella pnemnonine, KUB No. 5758, AR Bank # 362): > 64 mg/L
MIC (Klebsiella pneumoniae, KUB No. 55, AR Bank# 47): > 64 mg/L
MIC (Klebsiella pneumoniae, KUB No. 5531, AR Bank# 34): 0.5 mg/L (≈ 1.51 µM)
MIC (Klebsiella pneumoniae, KUB No. 5537, AR Bank# 40): > 64 mg/L
MIC (Klebsiella pneumoniae, KUB No. 5540, AR Bank# 43): 4 mg/L (≈ 12.1 µM)
MIC (Klebsiella pneumoniae, KUB No. 5541, AR Bank# 44): > 64 mg/L
MIC (Klebsiella pneumoniae, KUB No. 5543, AR Bank# 46): > 64 mg/L
MIC (Klebsiella pneumoniae, KUB No. 5546, AR Bank# 49): > 64 mg/L
MIC (Klebsiella pneumoniae, KUB No. 5563, AR Bank # 66): > 64 mg/L
MIC (Klebsiella pneumoniae, KUB No. 5565, AR Bank # 68): > 64 mg/L
MIC (Klebsiella pneumoniae, KUB No. 5572, AR Bank # 75): > 64 mg/L
MIC (Klebsiella pneumoniae, KUB No. 5573, AR Bank # 76): 0.5 mg/L (≈ 1.51 µM)
MIC (Klebsiella pneumoniae, KUB No. 5576, AR Bank # 79): > 64 mg/L
MIC (Klebsiella pneumoniae, KUB No. 5584, AR Bank # 87): > 64 mg/L
MIC (Klebsiella pneumoniae, KUB No. 5594, AR Bank # 97): > 64 mg/L
MIC (Klebsiella pneumoniae, KUB No. 5595, AR Bank # 98): > 64 mg/L
MIC (Klebsiella pneumoniae, KUB No. 5603, AR Bank # 106): > 64 mg/L
MIC (Klebsiella pneumoniae, KUB No. 5604, AR Bank # 107): > 64 mg/L
MIC (Klebsiella pneumoniae, KUB No. 5606, AR Bank # 109): > 64 mg/L
MIC (Klebsiella pneumoniae, KUB No. 5614, AR Bank # 117): 8 mg/L (≈ 24.1 µM)
MIC (Klebsiella pneumoniae, KUB No. 5617, AR Bank # 120): > 64 mg/L
MIC (Klebsiella pneumoniae, KUB No. 5622, AR Bank # 125): > 64 mg/L
MIC (Klebsiella pneumoniae, KUB No. 5626, AR Bank # 129): > 64 mg/L
MIC (Klebsiella pneumoniae, KUB No. 5635, AR Bank # 138): > 64 mg/L
MIC (Klebsiella pneumoniae, KUB No. 5637, AR Bank # 140): > 64 mg/L
MIC (Klebsiella pneumoniae, KUB No. 5638, AR Bank # 141): > 64 mg/L
MIC (Klebsiella pneumoniae, KUB No. 5643, AR Bank # 146): > 64 mg/L
MIC (Klebsiella pneumoniae, KUB No. 5645, AR Bank # 148): > 64 mg/L
MIC (Klebsiella pneumoniae, KUB No. 5650, AR Bank # 153): > 64 mg/L
MIC (Klebsiella pneumoniae, KUB No. 5657, AR Bank # 160): 0.06 mg/L (≈ 0.181 µM)
MIC (Klebsiella pneumoniae, KUB No. 5757, AR Bank # 361): > 64 mg/L
MIC (Klebsiella pneumoniae, KUB No. 5760, AR Bank # 364): > 64 mg/L
MIC (Klebsiella pneumoniae, Klebsiella pneumoniae KUB No. 5784, AR Bank #438): > 64 mg/L
MIC (Klebsiella pneumoniae, Klebsiella pneumoniae KUB No. 5797, AR Bank #453): > 64 mg/L
MIC (Klebsiella pneumoniae, Klebsiella pneumoniae KUB No. 5809, AR Bank #504): 2 mg/L (≈ 6.04 µM)
MIC (Klebsiella pneumoniae, Klebsiella pneumoniae KUB No. 5810, AR Bank #505): 0.5 mg/L (≈ 1.51 µM)
MIC (Klebsiella pneumoniae, Klebsiella pneumoniae KUB No. 5811, AR Bank #506): 2 mg/L (≈ 6.04 µM)
MIC (Klebsiella pneumoniae, Klebsiella pneumoniae KUB No. 5812, AR Bank #507): > 64 mg/L
MIC (Klebsiella pneumoniae, Klebsiella pneumoniae KUB No. 5828, AR Bank #523): 4 mg/L (≈ 12.1 µM)
MIC (Klebsiella pneumoniae, Klebsiella pneumoniae KUB No. 5830, AR Bank #525): > 64 mg/L
MIC (Kluyvera ascorbata, KUB No. 5641, AR Bank # 144): 1 mg/L (≈ 3.02 µM)
MIC (Morganella morganii, KUB No. 5554, AR Bank# 57): > 64 mg/L
MIC (Morganella morganii, Morganella morganii KUB No. 5824, AR Bank #519): 0.06 mg/L (≈ 0.181 µM)
MIC (Proteus mirabilis, KUB No. 5652, AR Bank # 155): > 64 mg/L
MIC (Proteus mirabilis, KUB No. 5653, AR Bank # 156): 4 mg/L (≈ 12.1 µM)
MIC (Proteus mirabilis, KUB No. 5656, AR Bank # 159): 1 mg/L (≈ 3.02 µM)
MIC (Proteus mirabilis, KUB No. 5775, AR Bank # 379): 4 mg/L (≈ 12.1 µM)
MIC (Providencia rettgeri, KUB No. 5579, AR Bank # 82): 0.06 mg/L (≈ 0.181 µM)
MIC (Serratia marcescens, KUB No. 5588, AR Bank # 91): 0.06 mg/L (≈ 0.181 µM)
MIC (Serratia marcescens, KUB No. 5596, AR Bank # 99): 0.06 mg/L (≈ 0.181 µM)
MIC (Serratia marcescens, KUB No. 5618, AR Bank # 121): 0.06 mg/L (≈ 0.181 µM)
MIC (Serratia marcescens, KUB No. 5619, AR Bank # 122): 0.06 mg/L (≈ 0.181 µM)
MIC (Serratia marcescens, KUB No. 5620, AR Bank # 123): 0.06 mg/L (≈ 0.181 µM)
MIC (Serratia marcescens, KUB No. 5621, AR Bank # 124): 0.06 mg/L (≈ 0.181 µM)
MIC (Serratia marcescens, KUB No. 5627, AR Bank # 130): 0.06 mg/L (≈ 0.181 µM)
MIC (Serratia marcescens, KUB No. 5628, AR Bank # 131): 0.06 mg/L (≈ 0.181 µM)
MIC (Serratia marcescens, Serratia marcescens KUB No. 5822, AR Bank #517): 1 mg/L (≈ 3.02 µM)
MIC (Serratia marcescens, Serratia marcescens KUB No. 5825, AR Bank #520): 1 mg/L (≈ 3.02 µM)
